Source: patent US12503438B2, “Compounds for the treatment of kinase-dependent disorders” (Exelixis, Inc., priority 2019, dated 2025)
pIC50: −log10 of the molar value.

Columns and labels:
Human Axl = target: T1, Human Axl (Homo sapiens, UniProt P30530, Q764R); assay: Human AXL kinase assay (33P-phosphoryl transfer radiometric, KinaseProfiler); settings: biochemical activity; 10 μM ATP
T1 construct: Human Axl (residues H473-A894 with Q764R, 161 nM); purchased Eurofins Pharma Discovery Services UK Limited (KinaseProfiler service)
T1 sequence (P30530 473-894 Q764R): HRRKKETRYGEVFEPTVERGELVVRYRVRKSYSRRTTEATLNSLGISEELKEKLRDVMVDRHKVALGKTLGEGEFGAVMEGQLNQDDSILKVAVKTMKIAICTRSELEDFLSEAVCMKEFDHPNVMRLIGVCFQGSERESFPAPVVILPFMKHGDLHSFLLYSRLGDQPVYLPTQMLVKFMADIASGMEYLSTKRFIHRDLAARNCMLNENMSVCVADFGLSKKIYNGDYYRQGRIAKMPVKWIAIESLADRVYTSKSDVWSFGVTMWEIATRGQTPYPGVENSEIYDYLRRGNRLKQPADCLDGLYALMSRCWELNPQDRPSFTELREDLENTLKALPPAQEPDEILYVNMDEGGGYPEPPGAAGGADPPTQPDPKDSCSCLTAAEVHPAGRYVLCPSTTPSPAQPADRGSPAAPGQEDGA
Procedure: Kinase activity and compound inhibition were investigated using the ^33P-Phosphoryl transfer radiometric kinase assay, performed using the KinaseProfiler™ service of Eurofins Pharma Discovery Services UK Limited. Dose-response experiments were performed using nine compound concentrations in a 96-well microtiter plate. For each assay, all compounds were prepared to a 50× final assay concentration (50 μM) in 100% DMSO, then diluted in a half-log series, with the final top concentration at 1 μM. This working stock of the compound was added to the assay well as the first component in the reaction, followed by the remaining components as detailed in the following assay protocols below. The positive control wells (100% kinase activity) contain all components of the reaction including 2% DMSO (control for solvent effects), except the compound of interest. Blank wells contain all components of the reaction, with the reference inhibitor, staurosporine. This reference compound was used to abolish kinase activity and generated the 0% kinase activity base-line. IC50 values were calculated by nonlinear regression analysis using the sigmoidal dose-response (variable slope) curve fit on XLFit version 5.3 (ID Business Solutions).
Human Axl (residues H473-A894 with Q764R, 161 nM) was incubated with 8 mM MOPS pH 7.0, 0.2 mM EDTA, 250 μM KKSRGDYMTMQIG, 10 mM magnesium acetate, and 10 μM [y-^33P-ATP]. The reaction was initiated by the addition of the Mg/ATP mix. After incubation for 40 minutes at room temperature, the reaction was stopped by the addition of phosphoric acid to a concentration of 0.5%. A reaction aliquot of 10 μL was then spotted onto a P30 filtermat and washed four times for 4 minutes in 0.425% phosphoric acid and once in methanol prior to drying and scintillation counting. Incorporated ^33P was measured using the Wallac Microbeta scintillation counter (Perkin Elmer).

KDR = KDR (Homo sapiens, UniProt P35968); assay: KDR autophosphorylation ELISA in HUVEC cells; format: cell-based; parameters: endogenous in cells; host or cells: HUVEC (Lonza #C2519A); settings: cellular activity, VEGF165-stimulated, phospho-KDR ELISA
Chain of KDR (P35968 20-1356): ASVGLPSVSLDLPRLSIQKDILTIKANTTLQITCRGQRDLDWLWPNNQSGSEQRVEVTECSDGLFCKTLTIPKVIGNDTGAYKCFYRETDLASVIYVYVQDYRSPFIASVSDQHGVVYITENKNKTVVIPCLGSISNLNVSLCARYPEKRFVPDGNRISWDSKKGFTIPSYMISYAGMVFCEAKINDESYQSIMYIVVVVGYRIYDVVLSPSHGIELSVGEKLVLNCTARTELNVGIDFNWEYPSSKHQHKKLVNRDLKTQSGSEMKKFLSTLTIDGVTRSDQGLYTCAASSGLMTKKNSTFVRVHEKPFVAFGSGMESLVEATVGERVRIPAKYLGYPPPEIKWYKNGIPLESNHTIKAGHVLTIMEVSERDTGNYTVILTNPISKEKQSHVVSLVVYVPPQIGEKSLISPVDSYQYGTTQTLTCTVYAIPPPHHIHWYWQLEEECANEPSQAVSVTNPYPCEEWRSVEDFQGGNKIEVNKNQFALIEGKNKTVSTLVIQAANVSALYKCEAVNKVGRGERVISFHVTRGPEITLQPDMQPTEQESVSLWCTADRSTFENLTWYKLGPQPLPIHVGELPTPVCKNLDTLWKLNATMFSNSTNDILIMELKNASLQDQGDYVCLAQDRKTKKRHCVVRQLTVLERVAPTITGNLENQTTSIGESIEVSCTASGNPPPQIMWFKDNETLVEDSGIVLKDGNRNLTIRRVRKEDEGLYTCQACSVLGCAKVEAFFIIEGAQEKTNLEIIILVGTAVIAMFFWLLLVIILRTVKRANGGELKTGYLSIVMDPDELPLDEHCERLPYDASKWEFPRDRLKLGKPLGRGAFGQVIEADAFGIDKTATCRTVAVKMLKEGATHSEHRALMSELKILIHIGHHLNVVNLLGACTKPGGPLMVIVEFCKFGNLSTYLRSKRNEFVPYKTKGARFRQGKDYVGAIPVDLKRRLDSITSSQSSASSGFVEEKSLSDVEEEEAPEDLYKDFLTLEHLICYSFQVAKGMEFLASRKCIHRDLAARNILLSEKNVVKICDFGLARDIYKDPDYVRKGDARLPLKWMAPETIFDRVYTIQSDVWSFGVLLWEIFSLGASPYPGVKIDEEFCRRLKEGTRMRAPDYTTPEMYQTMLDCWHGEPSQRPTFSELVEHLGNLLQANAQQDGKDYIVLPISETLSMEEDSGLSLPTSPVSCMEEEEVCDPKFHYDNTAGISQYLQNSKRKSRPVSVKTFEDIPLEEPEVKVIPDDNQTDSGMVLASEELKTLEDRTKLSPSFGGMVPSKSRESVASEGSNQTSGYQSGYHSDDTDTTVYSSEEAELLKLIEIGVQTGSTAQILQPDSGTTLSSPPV
Outline: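 Serum-starved (24 h) primary HUVEC were pretreated 1 h with compounds (8-point dilution, 0.3% DMSO final), then stimulated 5 min with 100 ng/mL VEGF165. Lysate phospho-KDR quantified by sandwich ELISA against a phospho-KDR standard; IC50 by 4-parameter fit, normalised to stimulated DMSO and unstimulated controls.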

Met = Met (Homo sapiens, UniProt P08581); assay: Met autophosphorylation ELISA in PC-3 cells; format: cell-based; parameters: endogenous in cells; host or cells: PC-3 prostate cancer cells (ATCC #CRL-1435); settings: cellular activity, HGF-stimulated, phospho-Met ELISA, read-out: c-Met IC50
Chain of Met (P08581 25-1390): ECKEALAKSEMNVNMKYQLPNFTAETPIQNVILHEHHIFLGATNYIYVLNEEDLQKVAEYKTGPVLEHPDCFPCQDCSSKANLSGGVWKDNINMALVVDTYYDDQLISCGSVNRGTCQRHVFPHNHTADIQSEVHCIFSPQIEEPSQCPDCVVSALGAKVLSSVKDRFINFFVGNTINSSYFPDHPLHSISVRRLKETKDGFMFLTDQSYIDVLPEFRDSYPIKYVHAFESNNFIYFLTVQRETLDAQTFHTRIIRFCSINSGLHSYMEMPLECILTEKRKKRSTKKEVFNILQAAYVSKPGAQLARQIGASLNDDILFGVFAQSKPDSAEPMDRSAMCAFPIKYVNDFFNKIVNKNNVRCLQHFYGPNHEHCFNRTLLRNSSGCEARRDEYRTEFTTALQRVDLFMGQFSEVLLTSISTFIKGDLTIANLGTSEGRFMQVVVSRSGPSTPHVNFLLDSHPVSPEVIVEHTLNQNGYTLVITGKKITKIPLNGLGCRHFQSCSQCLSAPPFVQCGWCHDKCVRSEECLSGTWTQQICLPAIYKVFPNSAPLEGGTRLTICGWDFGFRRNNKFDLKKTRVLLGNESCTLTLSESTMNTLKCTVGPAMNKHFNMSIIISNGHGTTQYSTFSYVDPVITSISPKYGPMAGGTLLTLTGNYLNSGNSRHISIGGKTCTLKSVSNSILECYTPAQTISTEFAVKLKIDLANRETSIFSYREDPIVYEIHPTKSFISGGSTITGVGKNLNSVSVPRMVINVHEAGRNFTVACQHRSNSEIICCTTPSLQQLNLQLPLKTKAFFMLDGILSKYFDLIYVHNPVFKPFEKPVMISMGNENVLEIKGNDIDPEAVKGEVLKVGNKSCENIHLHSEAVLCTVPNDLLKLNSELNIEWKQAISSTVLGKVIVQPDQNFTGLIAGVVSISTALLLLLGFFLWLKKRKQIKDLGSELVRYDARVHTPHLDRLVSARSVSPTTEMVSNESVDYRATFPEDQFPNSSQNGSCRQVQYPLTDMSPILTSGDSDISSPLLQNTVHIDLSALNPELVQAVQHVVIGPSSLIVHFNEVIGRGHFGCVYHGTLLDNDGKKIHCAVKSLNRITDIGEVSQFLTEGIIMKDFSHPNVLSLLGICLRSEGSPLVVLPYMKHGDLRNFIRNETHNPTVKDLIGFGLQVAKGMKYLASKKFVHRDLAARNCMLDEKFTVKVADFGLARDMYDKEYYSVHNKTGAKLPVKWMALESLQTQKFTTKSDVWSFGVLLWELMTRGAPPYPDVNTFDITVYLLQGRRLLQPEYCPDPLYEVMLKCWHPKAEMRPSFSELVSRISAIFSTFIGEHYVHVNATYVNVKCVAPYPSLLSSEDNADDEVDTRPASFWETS
Outline: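 Phospho-Met (panTyr) sandwich ELISA on lysates of PC-3 cells given 100 ng/mL HGF for 10 min after 1 h compound exposure (8-point curve, 0.3% DMSO) following 3 h serum starvation. Normalised to HGF-stimulated DMSO and reference-inhibitor wells; 4-parameter logistic IC50.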

Row | Structure (SMILES) | pIC50 (Human Axl) | pIC50 (KDR) | pIC50 (Met)
1 | COc1cc2c(Oc3ccc(NC(=O)C4(C(=O)Nc5ccc(F)cc5)CC4)cc3)ccnc2cc1-c1cnn(C)c1 [Compound 76, 1-N′-(4-Fluorophenyl)-1-N-[4-[6-methoxy-7-(1-methylpyrazol-4-yl)quinolin-4-yl]oxyphenyl]cyclopropane-1,1-dicarboxamide] | ≥ 8.00 | 7.00 to 8.00 | 7.00 to 8.00
2 | Cc1cc2c(Oc3ccc(NC(=O)C4(C(=O)Nc5ccc(F)cc5)CC4)cc3)ccnc2cc1-c1cnn(C)c1 [Compound 78, 1-N′-(4-Fluorophenyl)-1-N-[4-[6-methyl-7-(1-methylpyrazol-4-yl)quinolin-4-yl]oxyphenyl]cyclopropane-1,1-dicarboxamide] | ≥ 8.00 | 7.00 to 8.00 | ≥ 8.00
3 | O=C(Nc1ccc(F)cc1)C1(C(=O)Nc2ccc(Oc3ccnc4cc(C5CCNC5)ccc34)cc2)CC1 (centres unmarked) [Compound 83, 1-N′-(4-Fluorophenyl)-1-N-[4-(7-pyrrolidin-3-ylquinolin-4-yl)oxyphenyl]cyclopropane-1,1-dicarboxamide] | 7.00 to 8.00 | 6.52 to 7.00 | 7.00 to 8.00
4 | CC1Cc2cc(F)ccc2N1C(=O)C1(C(=O)Nc2ccc(Oc3ccnc4cc(-c5cnn(C)c5)ccc34)cc2)CC1 (centres unmarked) [Compound 80, 1-(5-Fluoro-2-methyl-2,3-dihydroindole-1-carbonyl)-N-[4-[7-(1-methylpyrazol-4-yl)quinolin-4-yl]oxyphenyl]cyclopropane-1-carboxamide] | 7.00 to 8.00 | < 6.52 | 6.52 to 7.00

Next, values leading:

Row | pIC50 (Human Axl) | pIC50 (KDR) | pIC50 (Met) | Structure (SMILES)
5 | 7.00 to 8.00 | 7.00 to 8.00 | 7.00 to 8.00 | Cn1ccnc1-c1ccc2c(Oc3ccc(NC(=O)C4(C(=O)Nc5ccc(F)cc5)CC4)cc3)ccnc2c1 [Compound 75, 1-N′-(4-Fluorophenyl)-1-N-[4-[7-(1-methylimidazol-2-yl)quinolin-4-yl]oxyphenyl]cyclopropane-1,1-dicarboxamide]
6 | 7.00 to 8.00 | ≥ 8.00 | 7.00 to 8.00 | O=C(Nc1ccc(F)cc1)C1(C(=O)Nc2ccc(Oc3ccnc4cc(-c5cccnc5)ccc34)cc2)CC1 [Compound 25, 1-N′-(4-Fluorophenyl)-1-N-[4-(7-pyridin-3-ylquinolin-4-yl)oxyphenyl]cyclopropane-1,1-dicarboxamide]
7 | ≥ 8.00 | ≥ 8.00 | ≥ 8.00 | O=C(Nc1ccc(F)cc1)C1(C(=O)Nc2ccc(Oc3ccnc4cc(-c5cn[nH]c5)ccc34)cc2)CC1 [Compound 67, 1-N′-(4-Fluorophenyl)-1-N-[4-[7-(1H-pyrazol-4-yl)quinolin-4-yl]oxyphenyl]cyclopropane-1,1-dicarboxamide]
8 | 7.00 to 8.00 | 7.00 to 8.00 | 7.00 to 8.00 | O=C(Nc1ccc(F)cc1)C1(C(=O)Nc2ccc(Oc3ccnc4cc(-c5ncco5)ccc34)cc2)CC1 [Compound 66, 1-N′-(4-Fluorophenyl)-1-N-[4-[7-(1,3-oxazol-2-yl)quinolin-4-yl]oxyphenyl]cyclopropane-1,1-dicarboxamide]
9 | ≥ 8.00 | ≥ 8.00 | ≥ 8.00 | O=C(Nc1ccc(F)cc1)C1(C(=O)Nc2ccc(Oc3ccnc4cc(-c5cnn(C6COC6)c5)ccc34)cc2)CC1 [Compound 24, 1-N′-(4-Fluorophenyl)-1-N-[4-[7-[1-(oxetan-3-yl)pyrazol-4-yl]quinolin-4-yl]oxyphenyl]cyclopropane-1,1-dicarboxamide]
10 | ≥ 8.00 | ≥ 8.00 | ≥ 8.00 | O=C(Nc1ccc(F)cc1)C1(C(=O)Nc2ccc(Oc3ccnc4cc(-c5ncc[nH]5)ccc34)cc2)CC1 [Compound 74, 1-N′-(4-Fluorophenyl)-1-N-[4-[7-(1H-imidazol-2-yl)quinolin-4-yl]oxyphenyl]cyclopropane-1,1-dicarboxamide]
11 | – | ≥ 8.00 | 7.00 to 8.00 | Cn1cc(-c2ccc3c(Oc4ccc(NC(=O)C5(C(=O)Nc6ccc(F)cc6)CC5)cc4)ccnc3c2)ccc1=O [Compound 119, 1-N′-(4-Fluorophenyl)-1-N-[4-[7-(1-methyl-6-oxopyridin-3-yl)quinolin-4-yl]oxyphenyl]cyclopropane-1,1-dicarboxamide]
